# Measurements taken from patent US20050014849A1, “Antifungal phenylethylene” (priority 2001, published 2005).
# Entries after “also recorded” stand apart in the source; their conditions may differ. Where two headings read alike, the source gives them in different places.
# Columns and labels:
# [1] = test system: A. flavus (ASU culture collection); assay: Broth macrodilution MIC/MFC, filamentous fungi; format: cell-based, Aspergillus flavus
# Method: Susceptibility testing of filamentous fungi was also conducted. Broth macrodilution susceptibility testing of P. lilacinus, Rhizopus spp. and Aspergillus spp. was performed in accordance with a proposed standardized procedure with slight modification. To induce conidium and sporangiospore formation, fungi were grown on PDA slants at 35° C. for 6 days (P. lilacinus, Rhizopus spp., all Aspergillus species except A. nidulans) or 3 days (A. nidulans). Fungal slants were covered with sterile 0.85% NaCl (P. lilacinus, Rhizopus spp., all Aspergillus species except A. nidulans) or 0.05% Tween 80 (A. nidulans), and suspensions were made by gently probing the colonies with the tip of a sterile Pasteur pipette. The resulting mixture of hyphal fragments and conidia or sporangiospores was withdrawn and transferred to a sterile clear microcentrifuge tube, and heavy particles were allowed to settle for 10 min. […] Susceptibility to TMPN was then determined by broth macrodilution as described above for yeast isolates. […]
# (§1) Minimum fungicidal concentrations (MFCs) were determined by subculturing 0.1 ml from each tube with no visible growth in the MIC broth macrodilution series onto the appropriate drug-free plates (see Fungal Strains section above).
# [2] = test system: T. inkin ATCC 18020; assay: Broth macrodilution MIC/MFC; format: cell-based, Trichosporon inkin; settings: for MFC: Trichosporon inkin ATCC 18020; for MIC: Trichosporon inkin
# Method: (§2) TMPN was screened against yeasts by the broth macrodilution assay according to the NCCLS [7]. Yeasts were suspended and diluted as recommended to yield final inocula ranging from 0.5-2.5×10^3 cfu/ml. Tests were performed in sterile 12 by 75 mm plastic tubes containing two-fold dilutions of TMPN in 0.165 M morpholinepropanesulfonic acid buffered RPMI 1640 medium (pH 7.0). One tube was again left drug free (but contained an equivalent volume of DMSO) for a turbidity control. Tubes were incubated without agitation at the appropriate temperature (see Fungal Strains section above). MICs were determined after 72 h for Cryptococcus and after 48 h for other yeast genera. The MIC was defined as the lowest concentration of TMPN that inhibited all visible growth of the test organism (optically clear).
# as §1
# (§3) Possible host effects were also evaluated. Broth macrodilution assays were performed with RPMI medium prepared at pH 5, pH 6, and pH 7, and in RPMI medium with and without 50% normal human serum (Lampire Biological Labs). The pH experiments were performed twice on separate days.
# [3] = test system: T. mucoides ATCC 90046; assay: Broth macrodilution MIC/MFC; format: cell-based, Trichosporon mucoides
# Method: as §2, §1
# [4] = test system: Staphylococcus epidermidis Presque Isle 4653; assay: NCCLS disk susceptibility test; format: cell-based; settings: disk diffusion
# Method: (§4) Antimicrobial activity was assayed by National Committee for Clinical Laboratory Standards (NCCLS) disk susceptibility tests. Isolated colonies from overnight cultures were suspended and diluted as recommended to yield approximately 1-2×10^8 cfu/ml, and 50 μl of this preparation immediately spread on agar plates. NCCLS recommended agar media were used for S. pneumoniae and N. gonorrhoeae, and Mueller-Hinton agar for all other bacteria. Yeast strains were tested on SDA. Excess moisture was absorbed for 10 min prior to application of 6 mm paper discs containing two-fold dilutions of TMPN in sterile DMSO.
# [5] = test system: Bacillus subtilis Presque Isle 620; assay: NCCLS disk susceptibility test; format: cell-based; settings: disk diffusion
# Method: as §4
# [6] = test system: Proteus vulgaris Presque Isle 365; assay: NCCLS disk susceptibility test; format: cell-based; settings: disk diffusion
# Method: as §4
# [7] = test system: Stenotrophomonas maltophilia ATCC 13637; assay: NCCLS disk susceptibility test; format: cell-based; settings: disk diffusion
# Method: as §4
# [8] = test system: Klebsiella pneumoniae Presque Isle 344; assay: NCCLS disk susceptibility test; format: cell-based; settings: disk diffusion
# Method: as §4
# [9] = test system: Staphylococcus aureus ATCC 29213; assay: NCCLS disk susceptibility test; format: cell-based; settings: disk diffusion
# Method: as §4
# [10] = test system: Pseudomonas aeruginosa Presque Isle 99; assay: NCCLS disk susceptibility test; format: cell-based; settings: disk diffusion
# Method: as §4
# [11] = test system: Streptococcus pneumoniae ATCC 6303; assay: NCCLS disk susceptibility test; format: cell-based; settings: disk diffusion
# Method: as §4
# [12] = test system: Neisseria gonorrhoeae ATCC 49226; assay: NCCLS disk susceptibility test; format: cell-based; settings: disk diffusion
# Method: as §4
# [13] = test system: Candida albicans ATCC 90028; assay: NCCLS disk susceptibility test; format: cell-based; settings: disk diffusion
# Method: as §4
# [14] = test system: Enterococcus faecalis ATCC 29212; assay: NCCLS disk susceptibility test; format: cell-based; settings: disk diffusion
# Method: as §4
# [15] = test system: Cryptococcus neoformans ATCC 90112; assay: NCCLS disk susceptibility test; format: cell-based; settings: disk diffusion
# Method: as §4
# [16] = test system: Escherichia coli ATCC 25922; assay: NCCLS disk susceptibility test; format: cell-based; settings: disk diffusion
# Method: as §4
# [17] = test system: Enterobacter cloacae ATCC 13047; assay: NCCLS disk susceptibility test; format: cell-based; settings: disk diffusion
# Method: as §4
# [18] = test system: Micrococcus luteus Presque Isle 456; assay: NCCLS disk susceptibility test; format: cell-based; settings: disk diffusion
# Method: as §4
# [19] = test system: C. utilis ATCC 22023; assay: Broth macrodilution MIC/MFC; format: cell-based, Candida utilis
# Method: as §2, §1
# [20] = test system: Blastoschizomyces capitalus ATCC 10663; assay: Broth macrodilution MIC/MFC; format: cell-based
# Method: as §2, §1
# [21] = test system: Rhodotorula mucilaginosa ATCC 9449; assay: Broth macrodilution MIC/MFC; format: cell-based
# Method: as §2, §1
# [22] = test system: 132 reference strains and clinical isolates; assay: Broth macrodilution MIC/MFC, all fungi tested (summary); format: cell-based
# Method: as §2
# Susceptibility testing of filamentous fungi was also conducted. Broth macrodilution susceptibility testing of P. lilacinus, Rhizopus spp. and Aspergillus spp. was performed in accordance with a proposed standardized procedure with slight modification. To induce conidium and sporangiospore formation, fungi were grown on PDA slants at 35° C. for 6 days (P. lilacinus, Rhizopus spp., all Aspergillus species except A. nidulans) or 3 days (A. nidulans). Fungal slants were covered with sterile 0.85% NaCl (P. lilacinus, Rhizopus spp., all Aspergillus species except A. nidulans) or 0.05% Tween 80 (A. nidulans), and suspensions were made by gently probing the colonies with the tip of a sterile Pasteur pipette. The resulting mixture of hyphal fragments and conidia or sporangiospores was withdrawn and transferred to a sterile clear microcentrifuge tube, and heavy particles were allowed to settle for 10 min. The upper homogenous suspension was transferred to a sterile microcentrifuge tube, vortexed for 15 s, adjusted spectrophotometrically, and diluted in sterile 0.165 M MOPS-buffered RPMI medium, pH 7.0, to yield final inocula ranging from 0.5-2.5×10^3 cfu/ml. Susceptibility to TMPN was then determined by broth macrodilution as described above for yeast isolates. MICs were read after 48 h The MIC was defined as the lowest concentration of TMPN that inhibited all visible growth of the test organism (optically clear).
# as §1, §3
structure (smiles),measurement,setting,value
"COc1cc(C=C[N+](=O)[O-])cc(OC)c1OC [TMPN, 1-(3′,4′,5′-trimethoxyphenyl)-2-nitro-ethylene]",MFC Range,[1],>64 mg/L
same,MIC Range,[1],16 mg/L
same,MFC,"[2]; ATCC18020, pH 6, pH6, read-out: MFC",16 mg/L
same,MFC,"[2]; ATCC18020, pH 7, pH7, read-out: MFC",16 mg/L
same,MFC,"[2]; ATCC18020, no serum, read-out: MFC",16 mg/L
same,MFC,"[2]; ATCC18020, pH 5, read-out: MFC",8 mg/L
same,MFC Range,[2]; T. inkin ATCC 18020,16 mg/L
same,MIC Range,[2]; T. inkin ATCC 18020,8 mg/L
same,MFC,"[2]; pH 5, repeat experiment",8 mg/L
same,MFC,"[2]; pH6, repeat experiment",16 mg/L
same,MFC,"[2]; pH7, repeat experiment",16 mg/L
same,MIC,"[2]; ATCC18020, Trichosporon inkin ATCC 18020, 50% human serum",> 64 mg/L
same,MIC,"[2]; ATCC18020, Trichosporon inkin ATCC 18020, no serum",8 mg/L
same,MIC,"[2]; ATCC18020, pH 5, Trichosporon inkin ATCC 18020, pH 5",4 mg/L
same,MIC,"[2]; ATCC18020, pH 5, Trichosporon inkin ATCC 18020, pH 5, repeat experiment",4 mg/L
same,MIC,"[2]; ATCC18020, pH 6, Trichosporon inkin ATCC 18020, pH6",8 mg/L
same,MIC,"[2]; ATCC18020, pH 6, Trichosporon inkin ATCC 18020, pH6, repeat experiment",8 mg/L
same,MIC,"[2]; ATCC18020, pH 7, Trichosporon inkin ATCC 18020, pH7",8 mg/L
same,MIC,"[2]; ATCC18020, pH 7, Trichosporon inkin ATCC 18020, pH7, repeat experiment",8 mg/L
same,MFC Range,[3],32 mg/L
same,MIC Range,[3],16 mg/L
same,MIC,[4],50-100 μg/disk
same,MIC,[5],50-100 μg/disk
same,MIC,[6],12.5-25 μg/disk
same,MIC,[7],>100 μg/disk
same,MIC,[8],>100 μg/disk
same,MIC,[9],3.12-6.25 μg/disk
same,MIC,[10],>100 μg/disk
same,MIC,[11],3.12-6.25 μg/disk
same,MIC,[12],0.39-0.78 μg/disk
same,MIC,[13],6.25-12.5 μg/disk
same,MIC,[14],50-100 μg/disk
same,MIC,[15],0.78-1.56 μg/disk
same,MIC,[16],>100 μg/disk
same,MIC,[17],>100 μg/disk
same,MIC,[18],50-100 μg/disk
same,MFC Range,[19],8 mg/L
same,MIC Range,[19],8 mg/L
same,MFC Range,[20],32 mg/L
same,MIC Range,[20],8 mg/L
same,MFC Range,[21],8 mg/L
same,MIC Range,[21],4 mg/L
same,antifungal spectrum in broth macrodilution assays,[22],broad-spectrum antifungal activity
same,activity in the presence of serum,[22]; 50% human serum,not active against all species
same,fungicidal action,"[22]; 132 reference strains and clinical isolates, incl. those resistant to fluconazole, ketoconazole, amphotericin B or flucytosine",fungicidal for the majority
same,effect of media pH on activity (MICs and MFCs),"[22]; pH 5, pH 6 and pH 7",unaffected; also recorded: identical or differed by no more than a single 2-fold dilution
